Source: ChEMBL document CHEMBL1201862, “PubChem BioAssay data set” (2004)
Several values for one entry are separate records, joined by “and”; a condition that tells them apart may be missing. Equal values may be shown once.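 Each compound was tested at five concentrations against cells in 96-well plates for 48 hours. Here, GI50 denotes the concentration required for 50% inhibition of growth.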 Activity calls are given as the source filed them. Cut-off read from the data, not from the text of the source: active = GI50 up to about 1.1 µM and inactive = higher.

Legend:
Experiment in all cases: DTP human tumour cell line panel, 48 h
[1] = tested on: HOP-62
[2] = tested on: RPMI-8226
[3] = tested on: HT-29
[4] = tested on: MDA-MB-231
[5] = tested on: NCI-H226
[6] = tested on: OVCAR-5
[7] = tested on: BT-549
[8] = tested on: UACC-62
[9] = tested on: HCC 2998
[10] = tested on: SF-268
[11] = tested on: MDA-N
[12] = tested on: OVCAR-4
[13] = tested on: OVCAR-8
[14] = tested on: U-251
[15] = tested on: IGROV-1
[16] = tested on: PC-3
[17] = tested on: COLO 205
[18] = tested on: Hs-578T
[19] = tested on: SW-620
[20] = tested on: DU-145

Measured: GI50

CC(C)=CCC[C@@H](C)C1=C(Nc2ccccc2F)C(=O)C(C)=C(O)C1=O
inactive: [1] 9.98 µM | [2] 17.4 µM | [3] 4.74 µM | [4] 4.53 µM | [5] 5.3 µM | [6] 36.8 µM | [7] 8.09 µM | [8] 4.81 µM | [9] 7.59 µM | [10] 5.47 µM | [11] 10.6 µM | [12] 9.98 µM | [13] 3.49 µM | [14] 8.49 µM | [15] 4.54 µM | [16] 8.61 µM | [17] 2.9 µM | [18] 5.31 µM | [19] 5.98 µM | [20] 9.35 µM

COc1ccc(-n2c(C)nc3ccc(NC4OCC(O)C(O)C4O)cc3c2=O)cc1 (stereo not given)
inactive: [1] > 100 µM | [2] 26.5 µM and 20 µM | [3] 24 µM and 25.6 µM | [4] > 100 µM | [5] 37.3 µM and 37.6 µM | [6] > 100 µM | [7] 74.5 µM | [8] 39.4 µM and 31.9 µM | [9] > 100 µM | [10] > 100 µM | [11] 61.9 µM and 62.4 µM | [12] > 100 µM | [13] 23.3 µM and 28.6 µM | [14] 60 µM and 49.2 µM | [15] > 100 µM and 55.1 µM | [16] > 100 µM | [17] 42.6 µM and 83 µM | [18] 51.8 µM and 41.8 µM | [19] 27.1 µM and 36.5 µM | [20] > 100 µM

C/C(CC/C(C)=N/O)=N\O
inactive: [1] > 100 µM | [2] > 100 µM | [3] > 100 µM | [4] > 100 µM | [5] > 100 µM | [6] > 100 µM | [7] > 100 µM | [8] > 100 µM | [9] > 100 µM | [10] > 100 µM | [11] > 100 µM | [12] > 100 µM | [13] > 100 µM | [14] > 100 µM | [15] > 100 µM | [16] > 100 µM | [17] > 100 µM | [18] > 100 µM | [19] > 100 µM | [20] > 100 µM

O=c1cc(N2CCOCC2)[nH]c(=O)n1-c1cccc(Cl)c1
inactive: [1] > 100 µM | [2] > 100 µM | [3] > 100 µM | [4] > 100 µM | [5] > 100 µM | [6] > 100 µM | [7] > 100 µM | [8] > 100 µM | [9] > 100 µM | [10] > 100 µM | [11] > 100 µM | [12] > 100 µM | [13] > 100 µM | [14] > 100 µM | [15] > 100 µM | [16] > 100 µM | [17] > 100 µM | [18] > 100 µM | [19] > 100 µM | [20] > 100 µM

O=c1[nH]nc(-c2ccc([N+](=O)[O-])cc2)n1/N=C/c1ccc([N+](=O)[O-])cc1
inactive: [1] > 100 µM | [2] 38.5 µM | [3] 74 µM | [4] > 100 µM | [5] > 100 µM | [6] > 100 µM | [7] > 100 µM | [8] 71.4 µM | [9] > 100 µM | [10] 72.9 µM | [11] > 100 µM | [12] 52.1 µM | [13] > 100 µM | [14] 71.4 µM | [15] > 100 µM | [16] 57.9 µM | [17] > 100 µM | [18] > 100 µM | [19] > 100 µM | [20] > 100 µM

COc1ccc2[nH]cc(C(=O)C(=O)NC34CC5CC(CC(C5)C3)C4)c2c1
inactive: [1] 16.5 µM | [2] 4.69 µM | [3] 2.08 µM | [4] 40.1 µM | [5] 22.9 µM | [6] 35.2 µM | [7] 43.3 µM | [8] 23.8 µM | [9] 28.1 µM | [10] > 61.1 µM | [11] 84.7 µM | [12] 29.6 µM | [13] 35.6 µM | [14] 13.5 µM | [15] 58.3 µM | [16] 38.3 µM | [17] 6.9 µM | [18] 21.4 µM | [19] 38.9 µM | [20] 39.4 µM

CN(C)CCNc1ccc2nnn3c4ccccc4c(=O)c1c23
inactive: [1] 3.72 µM | [2] 2.92 µM | [3] 2.01 µM | [4] 3.69 µM | [5] 1.74 µM | [6] 3.72 µM | [7] 13.2 µM | [8] 3.39 µM | [9] 7.13 µM | [10] 4.22 µM | [11] 2.81 µM | [12] 3.08 µM | [13] 2.21 µM | [14] 1.95 µM | [15] 3.38 µM | [16] 2.41 µM | [17] 1.34 µM | [18] 3.3 µM | [19] 1.59 µM | [20] 3.91 µM
